According to patent publication US6977259B2, “Quinoline derivatives and their use as aurora 2 kinase inhibitors” (AstraZeneca AB, priority 2000, dated 2005):
pIC50: −log10 of the molar value.

Tests used:
aurora2 kinase = molecular target: T1, aurora2 kinase (Homo sapiens, UniProt O14965); assay: In vitro aurora2 kinase inhibition test; type: biochemical
T1 construct: made in house; host or cells: Spodoptera frugiperda Sf21 insect cells (baculovirus, pFastBac HTc)
T1 sequence (O14965 1-403): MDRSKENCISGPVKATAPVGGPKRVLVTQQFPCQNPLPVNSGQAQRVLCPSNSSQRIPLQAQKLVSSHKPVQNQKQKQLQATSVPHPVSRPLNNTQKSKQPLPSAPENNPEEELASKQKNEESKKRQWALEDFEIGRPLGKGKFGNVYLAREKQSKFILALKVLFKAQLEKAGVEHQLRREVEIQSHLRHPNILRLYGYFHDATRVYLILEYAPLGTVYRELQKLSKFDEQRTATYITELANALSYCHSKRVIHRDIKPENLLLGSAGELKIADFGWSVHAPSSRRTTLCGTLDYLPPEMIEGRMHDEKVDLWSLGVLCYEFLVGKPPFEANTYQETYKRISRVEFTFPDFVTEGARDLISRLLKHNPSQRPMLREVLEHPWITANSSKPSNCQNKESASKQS

MCF-7 cells [1] = assay: In vitro cell proliferation assay 1 (CyQUANT cell density); type: cell-based; details: Homo sapiens, MCF7, 72 h; MCF-7, 3 days with compound, CyQUANT fluorescence; read-out: concentration giving 50% inhibition of cell proliferation
Excerpt: (§1) (b) In Vitro Cell Proliferation Assays
(§2) These and other assays can be used to determine the ability of a test compound to inhibit the growth of adherent mammalian cell lines, for example the human tumour cell line MCF7.
MCF-7 (ATCC HTB-22) or other adherent cells were typically seeded at 1×10^3 cells per well (excluding the peripheral wells) in DMEM (Sigma Aldrich) without phenol red, plus 10% foetal calf serum, 1% L-glutamine and 1% penicillin/streptomycin in 96 well tissue culture treated clear plates (Costar). The following day (day 1), the media was removed from a no treatment control plate and the plate stored at −80° C. […] The fluorescence of the wells was then measured using a fluorescence microplate reader (gain 70, 2 reads per well, 1 cycle with excitation 485 nm and emission 530 nm using a CytoFluor plate reader (PerSeptive Biosystems Inc.)). […]

MCF-7 cells [2] = assay: In vitro cell proliferation assay II (BrdU incorporation); type: cell-based; details: Homo sapiens, MCF7; MCF-7, 48 hours with compound, 2 hour BrdU labelling, ELISA; read-out: concentration giving 50% inhibition of BrdU incorporation
Excerpt: as §1, §2
This assay determines the ability of at test compound to inhibit the incorporation of the thymidine analogue, 5′-bromo-2′-deoxy-uridine (BrdU) into cellular DNA. MCF-7 or other adherent cells were typically seeded at 0.8×10^4 cells per well in DMEM (Sigma Aldrich) without phenol red, plus 10% foetal calf serum, 1% L-glutamine and 1% penicillin/streptomycin (50 μl/well) in 96 well tissue culture treated 96 well plates (Costar) and allowed to adhere overnight. […] The optical density of the wells was then determined at 690 nm wavelength using a Titertek Multiscan plate reader. […]

## COc1cc2c(Nc3cnc(NC(=O)c4ccccc4)nc3)ccnc2cc1OCCCN1CCOCC1 [Compound 2]
aurora2 kinase
  pIC50: 7.23
MCF-7 cells [1]
  pIC50: 6.34
MCF-7 cells [2]
  pIC50: 6.34

## O=C(Nc1ncc(Nc2ccnc3cc(OCCCN4CCOCC4)ccc23)cn1)c1ccccc1 [Compound 4]
aurora2 kinase
  pIC50: 7.11
MCF-7 cells [1]
  pIC50: 6.73
MCF-7 cells [2]
  pIC50: 6.72
